Laboratory results taken from patent publication US10098924B1, “Anticancer extracts of Alpinia officinarum hance” (KING SAUD UNIVERSITY, priority 2018, dated 2018).
Where a name gives a salt, the structure may show the parent alone.

Legend:
Format in all cases: cell-based
[1] = system: HCT-116 (Colon carcinoma) cells; assay: MTT cell viability assay, HCT-116 cells; settings: Homo sapiens, about 24 hours incubation
Protocol: (§1) Briefly, the cell lines were suspended in medium at concentration of about 5×10^4 cells per well in Corning® 96-well tissue culture plates and incubated for about 24 hours. Extracts prepared according to Example 1 were rehydrated, diluted ten times, and each dilution was added to a well of a 96-well plate (using six replicates). Six vehicle controls with media or 0.5% DMSO were run for each 96 well plate as a control. After incubation for about 24 hours, the number of viable cells was determined by the MTT assay method. Briefly, the media was removed from the 96-well plates and replaced with about 100 μl of fresh culture RPMI 1640 medium without phenol red, then about 10 μl of about 12 mM MTT (Sigma) stock solution (5 mg of MTT in about 1 mL of PBS) was added to each well, including the untreated controls. The 96-well plates were then incubated at about 37° C. and at about 5% CO2 for about 4 hours. An 85 μl aliquot of the media was removed from the wells, and 50 μl of DMSO was added to each well and mixed thoroughly with the pipette and incubated at about 37° C. for about 10 minutes. The optical density was measured at 590 nm with a microplate reader to determine the number of viable cells. The percentage of viability was calculated as: (ODt/ODc)×100%, where ODt is the mean optical density of wells treated with the tested sample and ODe is the mean optical density of untreated cells. […]

[2] = system: CACO (colorectal carcinoma) cells; assay: MTT cell viability assay, CACO cells; settings: Homo sapiens, about 24 hours incubation
Protocol: as §1

[3] = system: HeLa (Cervical carcinoma) cells; assay: MTT cell viability assay, HeLa cells; settings: Homo sapiens, about 24 hours incubation
Protocol: as §1

[4] = system: PC3 (prostate cancer) cells; assay: MTT cell viability assay, PC3 cells; settings: Homo sapiens, PC-3, about 24 hours incubation
Protocol: as §1

[5] = system: A-549 (Lung carcinoma) cells; assay: MTT cell viability assay, A-549 cells; settings: Homo sapiens, A549, about 24 hours incubation
Protocol: as §1

CC[C@]1(O)C[C@@H]2CN(CCc3c([nH]c4ccccc34)[C@@](C(=O)OC)(c3cc4c(cc3OC)N(C)[C@H]3[C@@](O)(C(=O)OC)[C@H](OC(C)=O)[C@]5(CC)C=CCN6CC[C@]43[C@@H]65)C2)C1 [Vinblastine Sulfate, vinblastine sulfate]
IC50 [1]: 3.5 ± 0.2 µg/mL
IC50 [2]: 30.3 ± 1.4 µg/mL
IC50 [3]: 59.7 ± 2.1 µg/mL
IC50 [4]: 21.2 ± 0.9 µg/mL
IC50 [5]: 24.6 ± 0.7 µg/mL
